In PubChem BioAssay AID1963979 (Molecular Pharmacology Branch, DTP, NCI, 2024):
Each block holds one molecule with its values, some of them ahead of it.

System: 361931-004-R-J1-PDC multicell spheroid viability
Test: Anticancer human tumor 361931-004-R-J1-PDC patient-derived colon adenocarcinoma cell line growth inhibition [PI3K]
Settings: for IC50: curve of first compound; for viability, T/C: stronger effect = lower value
Text: Combinatorial screen of targeted agents with the PI3K inhibitors inavolisib, alpelisib, duvelisib, and copanlisib in multi-cell type tumor spheroids
A high-throughput screen of multi-cell type tumor spheroids was designed to identify active combinations of targeted small molecules and PI3K pathway inhibitors. Complex spheroids include a stromal component modeled by human endothelial cells (HUVEC) and fibroblasts modeled by human mesenchymal stem cells (MSCs). The concentration ranges selected for each drug and investigational agent were based upon clinically achievable concentrations if the clinical Cmax of the agent was known.
Compounds. The drugs and investigational agents: inavolisib (NSC800729), alpelisib (NSC765974), duvelisib (NSC772469), copanlisib (NSC816437), ipatasertib (NSC767898), afuresertib (NSC778305), talazoparib (NSC767125), sapanisertib (NSC764658), selumetinib (NSC741078), tovorafenib (DAY101, NSC766906), vemurafenib (NSC761431), ravoxertinib (NSC781343), sotorasib (NSC818433), MRTX1133 (NSC 836407), abemaciclib (NSC 768073), palbociclib (NSC758247), venetoclax (NSC 766270), SY5609 (NSC837396), enzalutamide (NSC755605), and darolutamide (NSC825331), were obtained from the National Cancer Institute (NCI) Developmental Therapeutics Program Chemical Repository. The FDA-approved anticancer drug set is available from the NCI Developmental Therapeutics Program. […] The stock solutions were prepared in dimethyl sulfoxide (DMSO, Sigma-Aldrich, St. Louis, MO, cat. D2650) at 800-fold the tested concentration and stored at -70 degrees C prior to their use. All drugs and investigational agents were tested over a range starting from a high concentration at or near the clinical Cmax and decreasing in half-log increments. If the clinical Cmax for an agent had not been determined, the highest concentration tested was 10 microM.
Cell Culture. All cells were maintained in an incubator at 37 degrees C and 5% CO2 with 95% humidity. The PDC lines were cultured according to standard operating procedures established by the NCI PDMR (https://pdmr.cancer.gov/sops/default.htm). All PDCs were thawed and cultured in Matrigel-coated flasks prepared with a working solution of 1X Ham's F-12 nutrient mix, without supplementation (Invitrogen, Waltham, MA, cat. 11765054), 100 U/mL penicillin-streptomycin (Invitrogen, cat. 15140122), and 2.5% Matrigel (Corning Inc., Corning, NY, cat. 354248) for the first three passages. The 354836-022-R-J1-PDC, 475296-252-R-J1-PDC, and 997726-040-R-J2-PDC lines were cultured in 6A media, which includes advanced DMEM/F-12 (Thermo Fisher Scientific, cat. 12634028), 10 mM HEPES (Thermo Fisher Scientific, cat. 15630080), 1X GlutaMAX supplement (Thermo Fisher Scientific, cat. 35050061), 0.1 mg/mL primocin (InvivoGen, San Diego, CA, cat. ant-pm-2), 10% defined fetal bovine serum, heat inactivated (HyClone Laboratories Inc., Logan, UT, cat. SH30070.03HI), 50% L-WRN conditioned media (ATCC, cat. CRL-3276), 1.25 mM N-Acetyl-L-cysteine (Sigma-Aldrich, cat. A9165), 10 mM nicotinamide (Sigma-Aldrich, cat. N0636), 1X B-27 supplement (Thermo Fisher Scientific, cat. 17504044), 1X N-2 supplement (Thermo Fisher Scientific, cat. 17502048), and 10 microM Y-27632 dihydrochloride (Tocris Bioscience, Bristol, United Kingdom, cat. 1254). The 624824-186-R-J2-PDC line was cultured in 6C/Colon 1B media, which includes all 6A media components plus 50 ng/mL human EGF recombinant protein (Thermo Fisher Scientific, cat. PHG0311). […]

[1] = second compound 0.00316 µM, first compound 0.000316 µM
[2] = second compound 0.00316 µM, first compound 0.001 µM
[3] = second compound 0.00316 µM, first compound 0.00316 µM
[4] = second compound 0.00316 µM, first compound 0.01 µM
[5] = second compound 0.00316 µM, first compound 0.0316 µM
[6] = second compound 0.00316 µM, first compound 0.1 µM
[7] = second compound 0.01 µM, first compound 0.000316 µM
[8] = second compound 0.01 µM, first compound 0.001 µM
[9] = second compound 0.01 µM, first compound 0.00316 µM
[10] = second compound 0.01 µM, first compound 0.01 µM
[11] = second compound 0.01 µM, first compound 0.0316 µM
[12] = second compound 0.01 µM, first compound 0.1 µM
[13] = second compound 0.0316 µM, first compound 0.000316 µM
[14] = second compound 0.0316 µM, first compound 0.001 µM
[15] = second compound 0.0316 µM, first compound 0.00316 µM
[16] = second compound 0.0316 µM, first compound 0.01 µM
[17] = second compound 0.0316 µM, first compound 0.0316 µM
[18] = second compound 0.0316 µM, first compound 0.1 µM
[19] = second compound 0.1 µM, first compound 0.000316 µM
[20] = second compound 0.1 µM, first compound 0.001 µM
[21] = second compound 0.1 µM, first compound 0.00316 µM
[22] = second compound 0.1 µM, first compound 0.01 µM
[23] = second compound 0.1 µM, first compound 0.0316 µM
[24] = second compound 0.1 µM, first compound 0.1 µM
[25] = second compound 0.316 µM, first compound 0.000316 µM
[26] = second compound 0.316 µM, first compound 0.001 µM
[27] = second compound 0.316 µM, first compound 0.00316 µM
[28] = second compound 0.316 µM, first compound 0.01 µM
[29] = second compound 0.316 µM, first compound 0.0316 µM
[30] = second compound 0.316 µM, first compound 0.1 µM
[31] = second compound 1 µM, first compound 0.000316 µM
[32] = second compound 1 µM, first compound 0.001 µM
[33] = second compound 1 µM, first compound 0.00316 µM
[34] = second compound 1 µM, first compound 0.01 µM
[35] = second compound 1 µM, first compound 0.0316 µM
[36] = second compound 1 µM, first compound 0.1 µM
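Further: spheroids exposed to agents for seven days before readout.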

IC50 (second compound 0.00316 µM): > 100 nM | IC50 (second compound 0.01 µM): > 100 nM | IC50 (second compound 0.0316 µM): > 100 nM | IC50 (second compound 0.1 µM): > 100 nM | IC50 (second compound 0.316 µM): > 100 nM | IC50 (second compound 1 µM): 91.6 nM
Compound: CC(=O)c1c(C)c2cnc(Nc3ccc(N4CCNCC4)cn3)nc2n(C2CCCC2)c1=O + CC(Nc1ccc2c(c1)OCCn1cc(N3C(=O)OCC3C(F)F)nc1-2)C(N)=O
viability, T/C [1]: 97.9% | viability, T/C [2]: 106% | viability, T/C [3]: 105% | viability, T/C [4]: 107% | viability, T/C [5]: 99.4% | viability, T/C [6]: 73.7% | viability, T/C [7]: 111% | viability, T/C [8]: 104% | viability, T/C [9]: 104% | viability, T/C [10]: 99.8% | viability, T/C [11]: 99.1% | viability, T/C [12]: 76.8% | viability, T/C [13]: 102% | viability, T/C [14]: 102% | viability, T/C [15]: 93.8% | viability, T/C [16]: 86.8% | viability, T/C [17]: 91% | viability, T/C [18]: 82.6% | viability, T/C [19]: 98.8% | viability, T/C [20]: 87.2% | viability, T/C [21]: 86.1% | viability, T/C [22]: 89% | viability, T/C [23]: 90.4% | viability, T/C [24]: 63.8% | viability, T/C [25]: 96.5% | viability, T/C [26]: 87.1% | viability, T/C [27]: 90.8% | viability, T/C [28]: 77.6% | viability, T/C [29]: 81.4% | viability, T/C [30]: 61.9% | viability, T/C [31]: 86.6% | viability, T/C [32]: 78.5% | viability, T/C [33]: 75% | viability, T/C [34]: 85.1% | viability, T/C [35]: 64.3% | viability, T/C [36]: 48.9%

IC50 (second compound 0.00316 µM): > 100 nM | IC50 (second compound 0.01 µM): > 100 nM | IC50 (second compound 0.0316 µM): > 100 nM | IC50 (second compound 0.1 µM): 95.8 nM | IC50 (second compound 0.316 µM): > 100 nM | IC50 (second compound 1 µM): 54.4 nM
Compound: CC(C)n1nc(-c2ccc3oc(N)nc3c2)c2c(N)ncnc21 + CC(Nc1ccc2c(c1)OCCn1cc(N3C(=O)OCC3C(F)F)nc1-2)C(N)=O
viability, T/C [1]: 102% | viability, T/C [2]: 106% | viability, T/C [3]: 98.2% | viability, T/C [4]: 95.6% | viability, T/C [5]: 101% | viability, T/C [6]: 59.9% | viability, T/C [7]: 109% | viability, T/C [8]: 104% | viability, T/C [9]: 97.5% | viability, T/C [10]: 91.6% | viability, T/C [11]: 95.8% | viability, T/C [12]: 57.3% | viability, T/C [13]: 102% | viability, T/C [14]: 98.7% | viability, T/C [15]: 91.9% | viability, T/C [16]: 91.2% | viability, T/C [17]: 94.1% | viability, T/C [18]: 50.2% | viability, T/C [19]: 102% | viability, T/C [20]: 116% | viability, T/C [21]: 100% | viability, T/C [22]: 91.2% | viability, T/C [23]: 87.2% | viability, T/C [24]: 47.6% | viability, T/C [25]: 84.9% | viability, T/C [26]: 96.3% | viability, T/C [27]: 106% | viability, T/C [28]: 81.7% | viability, T/C [29]: 75.6% | viability, T/C [30]: 51.9% | viability, T/C [31]: 89% | viability, T/C [32]: 80.6% | viability, T/C [33]: 82.4% | viability, T/C [34]: 68.8% | viability, T/C [35]: 69.9% | viability, T/C [36]: 32.6%

IC50 (second compound 0.00316 µM): 5170 nM | IC50 (second compound 0.01 µM): 5130 nM | IC50 (second compound 0.0316 µM): 5270 nM | IC50 (second compound 0.1 µM): 4340 nM | IC50 (second compound 0.316 µM): 4030 nM | IC50 (second compound 1 µM): 1740 nM
Compound: CCCS(=O)(=O)Nc1ccc(F)c(C(=O)c2c[nH]c3ncc(-c4ccc(Cl)cc4)cc23)c1F + CC(Nc1ccc2c(c1)OCCn1cc(N3C(=O)OCC3C(F)F)nc1-2)C(N)=O
viability, T/C [5]: 102% | viability, T/C [6]: 100% | viability, T/C (second compound 0.00316 µM, first compound 0.316 µM): 84.9% | viability, T/C (second compound 0.00316 µM, first compound 1 µM): 82.8% | viability, T/C (second compound 0.00316 µM, first compound 3.16 µM): 83.8% | viability, T/C (second compound 0.00316 µM, first compound 10 µM): 4.25% | viability, T/C [11]: 101% | viability, T/C [12]: 94.7% | viability, T/C (second compound 0.01 µM, first compound 0.316 µM): 81.8% | viability, T/C (second compound 0.01 µM, first compound 1 µM): 83.6% | viability, T/C (second compound 0.01 µM, first compound 3.16 µM): 83.4% | viability, T/C (second compound 0.01 µM, first compound 10 µM): 4.05% | viability, T/C [17]: 92.3% | viability, T/C [18]: 86% | viability, T/C (second compound 0.0316 µM, first compound 0.316 µM): 85.5% | viability, T/C (second compound 0.0316 µM, first compound 1 µM): 83% | viability, T/C (second compound 0.0316 µM, first compound 3.16 µM): 87.2% | viability, T/C (second compound 0.0316 µM, first compound 10 µM): 3.87% | viability, T/C [23]: 88.5% | viability, T/C [24]: 81.5% | viability, T/C (second compound 0.1 µM, first compound 0.316 µM): 89.1% | viability, T/C (second compound 0.1 µM, first compound 1 µM): 73% | viability, T/C (second compound 0.1 µM, first compound 3.16 µM): 70.2% | viability, T/C (second compound 0.1 µM, first compound 10 µM): 4.14% | viability, T/C [29]: 86.7% | viability, T/C [30]: 72.6% | viability, T/C (second compound 0.316 µM, first compound 0.316 µM): 63% | viability, T/C (second compound 0.316 µM, first compound 1 µM): 73.5% | viability, T/C (second compound 0.316 µM, first compound 3.16 µM): 62.5% | viability, T/C (second compound 0.316 µM, first compound 10 µM): 3.6% | viability, T/C [35]: 74.4% | viability, T/C [36]: 65.7% | viability, T/C (second compound 1 µM, first compound 0.316 µM): 70% | viability, T/C (second compound 1 µM, first compound 1 µM): 50.3% | viability, T/C (second compound 1 µM, first compound 3.16 µM): 46.6% | viability, T/C (second compound 1 µM, first compound 10 µM): 2.59%
